Data set [1] in a line: Evaluation of normal organs of treated mice (H&E, IHC, flow cytometry, ELISpot). It is filed as in vivo. On the procedure:
Immunohistochemistry: Immunohistochemical studies were performed as described previously.^7 For the immunohistochemical studies, tissue sections were blocked in background sniper (Biocare Medical, RS966L) followed by overnight incubation with primary antibodies anti-Ki-67 antibody (1:1000, GeneTex cat #GTX16667 RRID:AB_422351) (link), anti-CHOP antibody (1:2000, Sigma, Cat #HPA068416), anti-PERK (phospho T982) antibody (1:150, Abcam Cat #ab192591, RRID:AB_2728666) link)), anti-phospho-eIF2α (Ser51) (1:50, Cell signaling, cs3398) and subsequent secondary antibody incubation for 60 min at room temperature. Immunoreactivity was visualized by using the DAB substrate and counterstained with hematoxylin (Vector Lab, Inc.). Percent of Ki67 positive proliferating cells was calculated in five randomly selected high-power fields (×40).
ELISpot. For ELISpot analysis of total IgM^+ and IgG^+ ASCs, Multi-Screen® filter plates (Millipore) were activated with 35% ethanol, washed with PBS, and coated with anti-IgM (SouthernBiotech, Cat. #1020-01) or anti-IgG (SouthernBiotech, Cat. #1030-01) in PBS. Single bone marrow cell suspensions were prepared, as above, and cultured at 250,000 cells/ml in RPMI 1640 medium (Invitrogen) supplemented with FBS (10% v/v, Invitrogen), penicillin-streptomycin/amphotericin B (1% v/v) and 50 μM β-mercaptoethanol (RPMI-FBS) at 37° C. for 16 h. After supernatants were removed, plates were incubated with biotinylated goat anti-mouse IgM (SouthernBiotech, Cat. #1020-08) or goat anti-mouse IgG1 (SouthernBiotech, Cat. #1070-08) Ab for 2 h and, after washing, incubated with HRP-conjugated streptavidin. Plates were developed using the Vectastain AEC peroxidase substrate kit (Vector Laboratories). The stained area in each well was quantified using the CTL ImmunoSpot software (Cellular Technology) and depicted as the number of spots for quantification
Flow cytometry: Single cell suspensions were flushed from tibia and fibula using sterile DPBS using a 10 ml syringe and 30 G needle. Red blood cells were removed by incubation with ACK lysis buffer (Lonzo) for 2 m. Bone marrow cells (2×10^6) were first stained in Hank's Buffered Salt Solution plus 0.1% BSA (HBSS-BSA) for 20 m with fixable viability dye (FVD, eFluor™ 506, eBioscience™, Cat. #50-246-097) and fluorophore-labeled mAbs to surface markers, including CD3 (APC-Cy7, Clone 17A2, BioLegend, Cat. #100221), IgD (FITC, Clone 11-26c.2a, BioLegend, Cat. #405704), CD138 (PE-Cy7, Clone 281-2, BioLegend, Cat. #142514), SCA-1 (PerCP, Clone D7, BioLegend, Cat. #108121), B220 (BV421, Clone RA3-6B2, BioLegend, Cat. #103240), in the presence of mAb Clone 2.4G2, which blocks FcγII and FcγIII receptors. After washing, cells were then fixed and permeablized by incubation for 1 h in 250 μl BD Cytofix/Cytoperm™ buffer (BD Fixation/Permeablization Kit, Cat. #554714) at 4° C. After washing twice with the BD Perm/Wash™ buffer, cells were counted again and 10^6 cells were resuspended in 100 μl of BD Cytofix/Cytoperm™ buffer for intracellular staining with anti-Igκ mAb (PE, e-Bioscience™, Clone 1871, Cat. #MKAPPA04) for 30 m. After washing with BD Perm/Wash™ buffer, cells were analyzed by LSRII (BD). FACS data were analyzed by the FlowJo® software (BD).
Animal Studies: All animal experiments were performed using UTHSA and UTSW IACUC approved protocols. For cell based xenograft tumor assays, TNBC cells (2×10^5-2×10^6) were mixed with an equal volume of matrigel and implanted in the mammary fat pads of 6-week-old female athymic nude mice as described^33. BALB/c mice were used for D2A1 syngeneic model. Once tumors reached measurable size, mice were divided into control (vehicle) and ERX-41 (10 mg/kg/oral) treatment groups. Mice bearing TNBC PDX tumors were purchased from Jackson laboratory (TM00089; TM00096; TM00098). TNBC PDX line UTPDX0001 establishment was earlier described^38. WHIM-20 ER+PDX model was purchased from Horizon Labs. OCa-PDX-38 was received from UTHSA ObGyn tissue procurement core. […]

Data set [2] relates to SUM-159 cells with LIPA KO. Briefly: CellTiter-Glo, SUM-159 LIPA KO cells. It is filed as cell-based. As to conditions: Homo sapiens, SUM159; SUM-159 stably transfected mCherry-RAMP4, CellTiter-Glo. As to the method: Cell viability assays: Cells were seeded in 96-well plates (2×10^3 cells/well) one day before the treatment. Cells were treated with varying concentrations of ERX-41 or ERX-11 analogs for 3-6 days. Then effects of ERX-41 or ERX-11 analogs on cell viability were measured in triplicate or sextuplicate with multiple biological replicates using the WST-1 (Promega), MTT as previously described^33 or CellTiter-Glo 2.0 (Promega) assays.
Lentiviral constructs cloning: LentiCRISPRv2 vector was used for CRSPR KO experiments. sgRNAs, which were chosen from human CRISPR knockout pooled library, were cloned into lentiCRISPRv2 vector^34. Human LIPA cDNA (GenBank: BC012287) or mouse LIPA cDNA (NM_021460) were clone into pWPI for over expression experiments. For TurboID experiment, the LIPA-TurboID sequence was cloned into pCW57-MCS1-2A-MCS2 vector. LentiCRISPR v2 was purchased from Addgene (Addgene #52961; //n2t.net/addgene:52961; RRID:Addgene_52961) (via Feng Zhang). pWPI was purchased from Addgene (Addgene #12254; //n2t.net/addgene:12254; RRID:Addgene_12254) (via Didier Trono). pCW57-MCS1-2A-MCS2 was purchased from Addgene (#71782) (via Adam Karpf). Human LIPA gene is referred as LIPA, while mouse LIPA gene is referred as mLIPA in this disclosure. […]
(ATP-based viability assays read luminescence as a measure of living cells.)

Consider `CC(C)COc1cc(C(=O)Nc2ccc(C(=O)N[C@H]3CC[C@H](C)CC3)cc2OCC(C)C)ccc1NC(=O)c1ccc([N+](=O)[O-])c(OCCO)c1` [ERX-41], for which, in data set [1] (flow cytometry and ELISpot, 1 week oral 10 mg/kg/day), the “bone marrow plasma cell numbers, Ig κ expression, IgM or IgG ASCs” value is “did not show any significant effects”. Also, the “gross histology of organs, nude mice with MDA-MB-231 xenografts” value in data set [1] (heart, lung, spleen, liver, kidney, ovary, pancreas, 30 days oral 10 mg/kg/day) is given as “no significant changes in the gross histology of multiple organs”. The “histology of organs, syngeneic mice with D2A1 xenografts” value in data set [1] (multiple organs including spleen) is “no significant histologic changes or immune infiltrates”. In data set [1] (oral administration, data not shown), the “ER stress in normal liver or kidney tissues” value is recorded as “no significant induction of ER stress”. The “uterus: proliferation index (Ki67), endometrial cell height, ERα expression” value in data set [1] (oral, 10 mg/kg/day) is “did not affect the proliferation index”. In data set [1] (syngeneic mice), the immunogenicity result is reported as “not immunogenic”. Besides, the half-inhibitory concentration (IC50) in data set [2] was approximately 4 µM.

As usually defined, the IC50 is the concentration that inhibits the measured activity by half. High values mean a need for much substance, low ones inhibition by little substance.

Values taken from patent US20250114313A1, “OLIGO-BENZAMIDE ANALOGS AND THEIR USE IN CANCER TREATMENT” (BOARD OF REGENTS, THE UNIVERSITY OF TEXAS SYSTEM, priority 2022, published 2025).
